Laboratory results: ChEMBL document CHEMBL1275398, “Side chain cyclization based on serine residues: synthesis, structure, and activity of a novel cyclic analogue of the parathyroid hormone fragment 1-11” (J Med Chem, 2010)
*1 amine or outer side, *2 acyl side, *3 side chain or, on linkers, in order; H or OH if unused. Where a SMILES comes first, the peptide text is derived from it. Bridges are numbered along the chain shown (N, C = ends). [ ]: non-standard residue; d: D form. Adipoyl = O=C(CCCCC(=O)[*:2])[*:1]; hArg = N=C(N)NCCCC[C@H](N)C(=O)O; Nle = CCCC[C@H](N)C(=O)O; Aib = CC(C)(N)C(=O)O

target: T1, Parathyroid hormone/parathyroid hormone-related peptide receptor (Homo sapiens) (UniProt Q03431); assay: Agonist activity at recombinant PTHR1 expressed in HEK293 cells co-transfected with CRE-Luc assessed as maximal increase of adenylyl cyclase activity after 4.5 hrs by luciferase assay relative to control; format: functional, cell-based
T1 sequence (whole entry): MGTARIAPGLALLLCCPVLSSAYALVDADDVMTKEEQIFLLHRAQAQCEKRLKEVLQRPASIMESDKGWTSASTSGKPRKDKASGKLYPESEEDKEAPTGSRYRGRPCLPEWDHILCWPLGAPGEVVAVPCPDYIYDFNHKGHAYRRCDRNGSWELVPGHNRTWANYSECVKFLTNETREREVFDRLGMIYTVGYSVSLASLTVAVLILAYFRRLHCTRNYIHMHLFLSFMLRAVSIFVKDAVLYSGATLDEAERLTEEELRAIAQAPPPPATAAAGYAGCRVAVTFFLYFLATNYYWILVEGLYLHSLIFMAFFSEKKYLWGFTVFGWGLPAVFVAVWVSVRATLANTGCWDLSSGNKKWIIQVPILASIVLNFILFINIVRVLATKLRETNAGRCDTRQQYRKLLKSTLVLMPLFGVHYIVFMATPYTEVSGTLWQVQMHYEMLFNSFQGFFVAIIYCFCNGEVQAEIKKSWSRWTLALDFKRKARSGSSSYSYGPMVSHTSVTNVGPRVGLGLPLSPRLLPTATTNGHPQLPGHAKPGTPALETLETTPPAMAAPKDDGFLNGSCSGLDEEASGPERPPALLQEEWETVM

Point of comparison: `CCCC[C@@H]1NC(=O)[C@H](CC(C)C)NC(=O)[C@@H](NC(=O)[C@@H](NC(=O)[C@H](CCC(=O)O)NC(=O)C(C)(C)NC(=O)[C@@H](NC(=O)C(C)(C)N)C(C)C)[C@@H](C)CC)COC(=O)CCCCC(=O)OC[C@@H](C(=O)N[C@@H](CCCCNC(=N)N)C(N)=O)NC(=O)[C@H](Cc2cnc[nH]2)NC1=O` (H-[Aib]V[Aib]EISL[Nle]HS[hArg]-NH2; linker 6-10 via Adipoyl), Activity 159%. Against it:
- CCCC[C@@H]1NC(=O)[C@H](CC(C)C)NC(=O)[C@@H](NC(=O)[C@@H](NC(=O)[C@H](CCC(=O)O)NC(=O)C(C)(C)NC(=O)[C@@H](NC(=O)C(C)(C)N)C(C)C)[C@@H](C)CC)CCCCNC(=O)CC[C@@H](C(=O)N[C@@H](CCCCNC(=N)N)C(N)=O)NC(=O)[C@H](Cc2cnc[nH]2)NC1=O (H-[Aib]V[Aib]EIKL[Nle]HE[hArg]-NH2; lactam 6-10) — lower, 98%
- CCCC[C@H](NC(=O)[C@H](CC(C)C)NC(=O)[C@H](CCC(N)=O)NC(=O)[C@@H](NC(=O)[C@H](CCC(=O)O)NC(=O)C(C)(C)NC(=O)[C@@H](NC(=O)C(C)(C)N)C(C)C)[C@@H](C)CC)C(=O)N[C@@H](Cc1cnc[nH]1)C(=O)N[C@@H](CCC(N)=O)C(=O)N[C@@H](CCCCNC(=N)N)C(N)=O (H-[Aib]V[Aib]EIQL[Nle]HQ[hArg]-NH2) — lower, 90%

target: T2, Parathyroid hormone/parathyroid hormone-related peptide receptor (Homo sapiens, UniProt Q03431); assay: Agonist activity at recombinant PTHR1 expressed in HEK293 cells co-transfected with CRE-Luc assessed as increase of adenylyl cyclase activity after 4.5 hrs by luciferase assay; format: functional, cell-based
T2 sequence (Q03431 whole entry): T1 sequence (whole entry)

Point of comparison: `CCCC[C@H](NC(=O)[C@H](CC(C)C)NC(=O)[C@H](CCC(N)=O)NC(=O)[C@@H](NC(=O)[C@H](CCC(=O)O)NC(=O)C(C)(C)NC(=O)[C@@H](NC(=O)C(C)(C)N)C(C)C)[C@@H](C)CC)C(=O)N[C@@H](Cc1cnc[nH]1)C(=O)N[C@@H](CCC(N)=O)C(=O)N[C@@H](CCCCN=C(N)N)C(N)=O` (H-[Aib]V[Aib]EIQL[Nle]HQ[hArg]-NH2), EC50 2.4 nM. Against it:
- CCCC[C@@H]1NC(=O)[C@H](CC(C)C)NC(=O)[C@@H](NC(=O)[C@@H](NC(=O)[C@H](CCC(=O)O)NC(=O)C(C)(C)NC(=O)[C@@H](NC(=O)C(C)(C)N)C(C)C)[C@@H](C)CC)CCCCNC(=O)CC[C@@H](C(=O)N[C@@H](CCCCN=C(N)N)C(N)=O)NC(=O)[C@H](Cc2cnc[nH]2)NC1=O (H-[Aib]V[Aib]EIKL[Nle]HE[hArg]-NH2; lactam 6-10) — 470-fold higher, 1120 nM
- CCCC[C@@H]1NC(=O)[C@H](CC(C)C)NC(=O)[C@@H](NC(=O)[C@@H](NC(=O)[C@H](CCC(=O)O)NC(=O)C(C)(C)NC(=O)[C@@H](NC(=O)C(C)(C)N)C(C)C)[C@@H](C)CC)COC(=O)CCCCC(=O)OC[C@@H](C(=O)N[C@@H](CCCCN=C(N)N)C(N)=O)NC(=O)[C@H](Cc2cnc[nH]2)NC1=O (H-[Aib]V[Aib]EISL[Nle]HS[hArg]-NH2; linker 6-10 via Adipoyl) — 12-fold lower, 0.2 nM
